Earlier results on three compounds are cited in patent US8748589B2, “Complex crystalline sugar comprising D-psicose and D-allose and process for production of the same” (priority 2005, dated 2014).

This series has as its system L-rhamnose isomerase. As to conditions: for inhibition of L-rhamnose isomerase activity by coexisting chelating agent: chelating agent present at the time of measurement of the activity.

Regarding `O=C(O)CN(CCN(CC(=O)O)CC(=O)O)CC(=O)O` [EDTA], the “inhibition of L-rhamnose isomerase activity by coexisting chelating agent” value is “Almost no activity was inhibited”.

With `O=C(O)CN(CCOCCOCCN(CC(=O)O)CC(=O)O)CC(=O)O` [EGTA], the “inhibition of L-rhamnose isomerase activity by coexisting chelating agent” value is “Almost no activity was inhibited”.

On to `[Co+2]` [cobalt ion], for which, for the setting “1 mM cobalt ion”, the “inhibition of L-rhamnose isomerase activity by metal ion” value is given as “About 30%”.
